The values below come from the METLIN SMRT retention time set (Domingo-Almenara et al. 2019).

Structures are written as SMILES.

A short description of this data set: gradient 5% acetonitrile 3 min, to 50% in 2 min, to 85% in 15 min, held 3 min, 100 µL/min. The conditions noted are these: column: Zorbax Extend-C18 2.1 x 50 mm; eluents: water / acetonitrile, 0.1% formic acid. A digest of the protocol: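 Each retention time is based on an adduct peak selected computationally and verified by manual inspection. Measurements used HPLC–quadrupole time-of-flight mass spectrometry in positive and negative ionization mode on mixtures of ~100 pure standards. Chromatography ran on a Zorbax Extend-C18 column (2.1 × 50 mm, 1.8 μm) at 100 μL/min with water and acetonitrile, each containing 0.1% formic acid, and dead and dwell volumes of 40 μL and 900 μL.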
For `CCOc1nc2ccccc2nc1N1CCCC(C(=O)Nc2ccccc2)C1` (centres undefined), the RP-LC retention time came out at 1180 s.
Next, `Cc1cc(-c2nnc(-c3ccccc3)o2)c(C)n1CC(=O)NC1CCCCC1`: 883 s; `Cc1nc(N2CCCC(C(=O)NCCc3ccc(S(N)(=O)=O)cc3)C2)c2c(C)c(C)oc2n1` (centres undefined): 680 s.
With `O=C(CSc1nccc(N2CCC(Cc3ccccc3)CC2)n1)NCCCc1ccccc1`, the RP-LC retention time worked out at 906 s.
As to `O=c1n(Cc2ccccc2Cl)nc2c(S(=O)(=O)N3CCOCC3)cccn12`, the RP-LC retention time turned out to be 774 s.
The same measure for `Cn1c(=O)n([C@H]2CCCN(S(=O)(=O)c3cccc4nsnc34)C2)c2ncccc21`: 822 s; for `CCCC(=O)Nc1ccc2c(c1)nc(CN1CCCC1)n2C(C)C`: 586 s; for `O=C(c1cn(-c2cc(N3CCCCC3)ncn2)cn1)N1CC=C(c2ccccc2)CC1`: 1060 s.
For `COc1ccc(NC(=O)Cn2nc3cc(C)nc(-c4ccccc4)n3c2=O)c(OC)c1`, the RP-LC retention time was 830 s.
Next, `CC(C)(C)c1cc(C(N)=O)n[nH]1`: 602 s; `O=C(Nc1nccnc1C(=O)NCCCN1CCCC1)c1ccccc1`: 609 s.
The same measure for `CCc1ccc(NS(=O)(=O)c2cc(-c3[nH]ncc3C(=O)N(C)C)oc2C)cc1`: 704 s; for `CN(Cc1ccccc1)C(=O)c1cc2n(n1)CC(C)(C(=O)NC1CCCCCC1)N(C)C2=O` (centres undefined): 866 s; for `O=C(Cn1cnc2c(nnn2-c2ccc(Br)cc2)c1=O)NCc1ccco1`: 776 s.
The same measure for `O=C(NC1CC1)C1CCc2sc(C(=O)N3CCCC3)cc2C1` (centres undefined): 654 s; for `COc1cccc(S(=O)(=O)N2CCC(N3C[C@H](OC)[C@@H]3c3ccncc3)CC2)c1`: 625 s; for `CCCC(=O)Nc1nc(-c2ccc3c(c2)N(CC)C(=O)CO3)cs1`: 853 s.
The compound `CCc1ccc(Nc2nc(C(=O)NCCC3=CCCCC3)nc3ccccc23)cc1` gave an RP-LC retention time of 1080 s.
Next, `O=C(NC1CC1)c1cnn2c(-c3ccccn3)ccnc12`: 687 s.
The same measure for `CN(C)C(=O)c1ccc2c(c1)N(CC(=O)Nc1ccc(Cl)cc1)C(=O)CS2`: 753 s.
The same measure for `CCOc1ccc(-c2nc(C3CC(=O)N(c4ccc(F)cc4)C3)no2)cc1` (centres undefined): 1010 s.
`Cc1cc(=O)n(CC(=O)Nc2ccccc2C)c(N2CCOCC2)n1` came in with an RP-LC retention time of 657 s.
For `COc1ccc(C(=O)N2CCC(c3cc(N)on3)CC2)cc1F`, the RP-LC retention time worked out at 659 s.
Compound `COc1cccc(C2=NC3(CCN(C(C)=O)CC3)NC(c3cc(Br)ccc3O)C2)c1` (centres undefined) displayed an RP-LC retention time of 694 s.
The compound `O=C(CCc1c[nH]c2ccccc12)N1CCc2cc(-c3ccno3)ccc21` showed an RP-LC retention time of 984 s.
Next, `CCn1cc(S(=O)(=O)Nc2cc(C)ccc2C)c2cccnc21`: 892 s; `O=C(NC1CCN(c2nnc3ccc(Cl)cn23)CC1)c1ccc(C(F)(F)F)s1`: 837 s; `CCCC(=O)N1CCCC1COc1ccc(C(=O)N2CCCC2)cc1` (centres undefined): 600 s.
With `Cc1ccc2c(c1)N(S(C)(=O)=O)CCC(C(=O)Nc1ccccc1C(C)C)O2` (centres undefined), the RP-LC retention time is 1020 s.
On to `CCN1CCN(CCNC(=O)c2nc3ccccn3c2-c2ccc(Cl)cc2)CC1`, for which the RP-LC retention time came to 782 s.
`O=C(NCC1CCN(c2cc(-c3ccncc3)[nH]n2)CC1)c1ccc2cc[nH]c2c1` showed an RP-LC retention time of 584 s.
Next, `CCc1nc(-c2cc(S(=O)(=O)NCC(=O)N3CCN(c4ccc(F)cc4)CC3)c(C)s2)no1`: 959 s; `COc1ccccc1-c1nc(Cn2nnc(-c3nc(-c4cccc(Cl)c4)no3)c2C)c(C)o1`: 1240 s.
For the compound `CC(C)CCN(CC(=O)N1CCNCC1)C(=O)c1ccc(Br)cc1`, the RP-LC retention time turned out to be 657 s.
The same measure for `Cc1ccccc1NC(=O)C1CC(=O)N(c2n[nH]c3cccc(F)c23)C1` (centres undefined): 733 s.
As for `CN1CCN(C(=O)C2CCN(S(=O)(=O)c3cc(C(=O)N4CCCCCC4)cs3)CC2)CC1`, the RP-LC retention time turned out to be 619 s.
Next, `C=CCn1c(=O)c2ccccc2n(Cc2nc(-c3ccc(F)c(Cl)c3)no2)c1=O`: 1140 s; `CCn1ccc2c(cc(C(=O)Nc3ccc(F)cc3Cl)n2C)c1=O`: 776 s.
The same measure for `O=C(Cc1ccccc1Cl)Nc1ccc(-c2nc(-c3ccccc3)co2)cc1`: 1150 s; for `CCN(CC)CCNC(=O)Cn1ncc2c3ccccc3n(Cc3ccccc3)c2c1=O`: 605 s.
The same measure for `CCCCc1nc(SCC(=O)Nc2nc(-c3ccc(Br)cc3)cs2)n[nH]1`: 1050 s.
`Cn1nc(-c2nc(C3CC3)no2)c2c1CCN(C(=O)c1c(F)cccc1Cl)C2` yielded an RP-LC retention time of 837 s.
Next, `COCc1nc(-c2ccc(OC3CCN(C(=O)c4n[nH]c5ccccc45)C3)cc2)no1` (centres undefined): 835 s.
The same measure for `Cc1ccc(Cc2noc(CN3CCCC3=O)n2)cc1`: 758 s.
Compound `CCCCNc1nc(-c2ccccc2F)nc2ccccc12` displayed an RP-LC retention time of 730 s.
Compound `COC(=O)c1ccsc1NC(=O)c1c[nH]c2ccccc12` showed an RP-LC retention time of 882 s.
For the compound `CC(C)n1cnc2cc(CNC(=O)c3nn(C)c4ccccc34)ccc21`, the RP-LC retention time turned out to be 629 s.
The same measure for `C=CCNC(=O)c1nnc2n(c1=O)CCN2c1ccc(F)cc1`: 622 s; for `O=C(NCC1CCN(C(=O)Oc2ccccc2)CC1)C1c2ccccc2Oc2ccccc21`: 949 s; for `CC(C)CCNC(=O)C1(C)CN(S(=O)(=O)c2ccccc2)CC(=O)N1c1cccc(F)c1` (centres undefined): 953 s.
The same measure for `O=C(O)c1ccc(N2CCN(c3ccccn3)CC2)c(NS(=O)(=O)c2ccc(F)c(F)c2)c1`: 649 s; for `CCN1C(=O)Cc2cc(C(=O)NC3CCCCCC3)ccc21`: 797 s.
The same measure for `C=CCn1c(=O)c2ccccc2n(Cc2nc(-c3ccc(F)cc3)no2)c1=O`: 1050 s; for `O=C(Cn1c(=O)oc2ccccc21)N1C[C@H]2C[C@H](C1)[C@H]1CCCC(=O)N1C2`: 658 s.
In turn, `CC(C)CC(=O)N1CCCn2nc(-c3ccncc3)cc2C1` returned an RP-LC retention time of 543 s.
Compound `O=C(CN1CC=C(c2cnn(-c3ccc(F)cc3)c2)CC1)N1CCN(c2ccc(F)cc2)CC1` registered an RP-LC retention time of 739 s.
Next, `CC(C)NC(=O)N1CC(c2nc(-c3cccnc3)no2)C2(CCOCC2)C1` (centres undefined): 635 s.
Next, `CC(C)CCNC(=O)C1(C)Cn2nc(C(=O)NCCc3ccc(Cl)cc3)cc2C(=O)N1C` (centres undefined): 845 s; `CCN1C(=O)c2cccnc2Sc2cc(C(=O)N3CCCCC3)ccc21`: 730 s; `O=C(NCCCc1ccccc1)C1CCN(c2nnc3ccc(Cl)cn23)CC1`: 760 s.
The same measure for `O=C(c1ccncc1)N1CCc2c([nH]c3ccccc23)C1c1ccc(Cl)cc1` (centres undefined): 1000 s; for `O=C(Nc1ccc2c(c1)OCCO2)c1cc2nc(N3CCCCC3)sc2s1`: 1010 s; for `CNC(=O)[C@@H]1CN(S(=O)(=O)c2cnc[nH]2)C[C@H]1c1nc(C)no1`: 568 s.
The compound `Cc1ccccc1CNC(=O)C1CCCN1S(=O)(=O)c1cc2c(cc1C)NC(=O)C(C)O2` (centres undefined) registered an RP-LC retention time of 814 s.
As to `CCn1c(C)c(C(=O)C(C)N(C(=O)c2ccc(C)cc2)C2CC2)c(C)c1C(=O)OC` (centres undefined), the RP-LC retention time was 1040 s.
The compound `COC(=O)C1=CN(c2cc(OC)cc(OC)c2)c2ccc(F)cc2S1(=O)=O` came in with an RP-LC retention time of 908 s.
The same measure for `COc1ccc(OC)c(NC(=O)C2CCCN2S(=O)(=O)c2ccc3c(c2)CC(C)N3C(C)=O)c1` (centres undefined): 863 s.
Turning to `CS(=O)(=O)Nc1nc2ccccc2[nH]1`, the RP-LC retention time worked out at 645 s.
Next, `CCOc1ccccc1-c1noc(Cn2c(=O)n(Cc3ccccc3Cl)c(=O)c3sccc32)n1`: 1160 s; `c1ccc(CCCN2CCN(CCOC(c3ccccc3)c3ccccc3)CC2)cc1`: 874 s; `COc1ccc(F)cc1S(=O)(=O)N1C[C@@H]2C[C@H](NC(=O)c3cccs3)[C@H]1C2`: 834 s.
Next, `O=C(c1cccs1)N1CCCn2cc(-c3ccccc3F)nc21`: 666 s; `Cc1ccc(-c2csc(NC(=O)c3ccccc3Br)n2)c(C)c1`: 1150 s; `Cc1nn2c(CNS(=O)(=O)c3ccc(C)c(C)c3)c(-c3ccccc3)nc2s1`: 916 s.
For the compound `Cc1ccc(NC(=O)N2CCC(N3CCN(Cc4ccccc4)C3=O)CC2)cc1`, the RP-LC retention time is 822 s.
Compound `CCOC(=O)c1ccc(NC(=O)N2CCC(n3c(C(F)(F)F)nc4cccnc43)CC2)cc1` registered an RP-LC retention time of 920 s.
For the compound `COC1=CC(=O)C[C@@H](C)C12Oc1c(Cl)c(OC)cc(OC)c1C2=O` (some centres undefined), the RP-LC retention time is 812 s.
Take `Cc1ccc(NS(=O)(=O)c2cc(-c3cc(C(F)(F)F)on3)sc2C)c(Cl)c1`: the RP-LC retention time was 1220 s.
The compound `COC(=O)c1ccc(CNC2CCN(c3ccc(C(=O)NC4CC4)cn3)C2)cc1` (centres undefined) showed an RP-LC retention time of 552 s.
